Test results: US6362331B1, “Process for the preparation of antitumor agents” (priority 2001, dated 2002)

What was measured:
P388 = conditions: Kaneko et al., J. Med Chem. 1985; cited from earlier work
calf thymus DNA = experiment: Thermal denaturation with calf thymus DNA; assay type: binding; conditions: for ΔTm (elevation of helix melting temperature of CT DNA): 1:5 molar ratio (PBD):(DNA), incubation for 18 h at 37° C.; for Induced ΔTm after Incubation at 37° C. for 0 h / Induced ΔTm after Incubation at 37° C. for 18 h: [PBD]:[DNA] molar ratio 1:5
Protocol: (§1) Biological Activity: In vitro anticancer activity studies were carried out at National Caner Institute (USA) and the thermal denaturation of DNA was performed at School of Life Science, University of Hyderabad.
(§2) Table 1: Thermal denaturation with calf thymus DNA^a, at a [PBD]:[DNA]molar ratio of 1:5^b and in vitro one dose primary anticancer assay^c in the NCI-H460, MCF 7 and SF-268 for Vi, wherein R is H; R1 is H, OH or OAc; and n is 3 to 5.

MCF 7 (Breast) = experiment: In vitro one dose primary anticancer assay (NCI), MCF 7; assay type: cell-based, human
Protocol: as §1, §2
(§3) In this assay, for a 1:5 molar ratio of (PBD):(DNA), one of this mixed imine-amide PBD dimer VI, where n is 5, elevates the helix melting temperature of CT DNA remarkably to 17° C. after incubation for 18 h at 37° C.

NCI-H460 (Lung) = experiment: In vitro one dose primary anticancer assay (NCI), NCI-H460; assay type: cell-based, human
Protocol: as §1, §2, §3

SF-268 (CNS) = experiment: In vitro one dose primary anticancer assay (NCI), SF-268; assay type: cell-based, human
Protocol: as §1, §2, §3

SMILES	in vivo antitumour activity (P388)	ΔTm (elevation of helix melting temperature of CT DNA) (calf thymus DNA) [°C]	Induced ΔTm after Incubation at 37° C. for 0 h (calf thymus DNA) [C]	Induced ΔTm after Incubation at 37° C. for 18 h (calf thymus DNA) [C]	Growth Percentage (Breast) MCF 7 (MCF 7 (Breast))	Growth Percentage (Lung) NCI-H460 (NCI-H460 (Lung))	Growth Percentage (CNS) SF-268 (SF-268 (CNS))
COc1cc2c(cc1OC(C)=O)NC(=O)C1C[C@H](OC(C)=O)CN1C2=O (stereo partly drawn) [(7-methoxy-2-methylcarbonyloxy-5,11-dioxo-(2S)-2,3,5,10,11,11a-hexahydro-1H-pyrrolo[2,1-c][1,4]-benzodiazepine-5,11-dione-8-yl acetate]	significant in vivo antitumour activity	–	–	–	–	–	–
COc1cc2c(cc1O)N=CC1CCCN1C2=O (stereo not drawn) [DC-81, reference compound]	–	0.7	0.3	0.7	–	–	–
COc1cc2c(cc1OCCCOc1cc3c(cc1OC)C(=O)N1CCC[C@H]1C=N3)N=C[C@@H]1CCCN1C2=O [DSB-120, reference compound]	–	–	10.2	–	–	–	–
COc1cc2c(cc1OCCCCOc1cc3c(cc1OC)NC(=O)[C@H]1CCCN1C3=O)N=C[C@@H]1CCCN1C2=O [VI (n is 4)]	–	–	5.0	8.5	−41	−16	−81
COc1cc2c(cc1OCCCOc1cc3c(cc1OC)NC(=O)[C@H]1CCCN1C3=O)N=C[C@@H]1CCCN1C2=O [VI (n is 3)]	–	–	6.5	7.0	10	4	11
COc1cc2c(cc1OCCCCCOc1cc3c(cc1OC)NC(=O)[C@H]1CCCN1C3=O)N=C[C@@H]1CCCN1C2=O [VI (n is 5), 8-methoxy-7-3-[7-methoxy-5-oxo-(11aS)-2,3,4,11a-tetrahydro-1H-pyrrolo[2,1-c][1,4]-benzodiazepine-8-yloxy]pentyloxy-(11aR)-2,3,5,10,11a hexahydro-1H -pyrrolo[2,1-c][1,4]benzodiazepine-5,11-dione]	–	17	14.0	17.0	7	−39	−21
